Assay type in all cases: cell-based
One experiment deals with U937. The experiment can be described thus: Cell growth inhibitory activity (Almar Blue), U937. To be noted: Homo sapiens, U-937; U937 cancer cells, cultured for 72 hours. On the procedure: (§1) The cell growth inhibitory activity of Compound 1 was evaluated using 4 types of cancer cells. The cancer cells used were human cancer cells (HT-29, A431, NCI-H460, […]). Compound 1 was dissolved in DMSO. One hundred […] of a suspension of cancer cells was charged in each 96 well micro plate (1.0 to 3.0×10^3 cells/well). After 24 hours, each of solutions of Compounds 1 to 6 was added in an amount of 2 ml to 100 ml of culture fluid to give final concentrations of […] and cultured for 72 hours. Thereafter, 20 ml of an Almar Blue reagent was added to each solution, followed by culturing for 6 hours.

Another experiment relates to NCI-H460. The experiment can be described thus: Cell growth inhibitory activity (Almar Blue), NCI-H460. Particulars: Homo sapiens; NCI-H460 cancer cells, cultured for 72 hours. Here is the method: as §1
The subject of the next experiment is HT-29. Put plainly: Cell growth inhibitory activity (Almar Blue), HT-29. To be noted: Homo sapiens; HT-29 cancer cells, cultured for 72 hours. Here is the method: as §1
The cell growth inhibitory activity of Compound 6 was evaluated using cancer cells (HT-29). The method for the evaluation was the same as the method by which Compound 1 was evaluated.

Another experiment concerns PC-3. Put plainly: Cell growth inhibitory activity (Almar Blue), PC-3. Particulars: Homo sapiens; PC-3 cancer cells, cultured for 72 hours.

As a reminder, the IC50 is the concentration that gives 50% inhibition. Low readings indicate greater potency in that assay, high ones weaker potency in that assay. Take `C/C=C(/C)C1OC2C(C)=CC(C)(/C=C/C(=O)O)C3C(C)=CC1(C)C23C` (centres unmarked) [Compound 1]: the IC50 in the experiment on U937 amounted to 1100 nM; in the experiment with NCI-H460 it was 580 nM; in the experiment on HT-29, 590 nM; with PC-3, 820 nM.

As to `C=C1C(O)C(C)(/C=C/C(=O)O)C2C(C)=CC3(C)C(/C(C)=C\C)OC1C23C` (centres unmarked) [Compound 6], the concentration for half-maximal inhibition (IC50) with HT-29 was 310 nM.

The values above are taken from US9376415B2, “Tricyclic condensed heterocyclic compound, process of producing same, and use thereof” (NIPPON SUISAN KAISHA, LTD., priority 2009, dated 2016).
